Where a name gives a salt, the structure may show the parent alone. Read-outs that look alike come from different tables or passages of the source.
Biological target: SARS-CoV-2 3CLpro (Severe acute respiratory syndrome coronavirus 2, UniProt P0DTD1)
Assay: biochemical
Format: biochemical
Design: Replicate_1 / Replicate_2 / mean / mean (LOPAC_screen_w_protease): unit not given here
Conditions: for inhibition at 5 µM: 4 h
[1] = LOPAC1280 primary screen with protease, 5 µM compound, mean of two replicates
[2] = LOPAC1280 primary screen with protease, 5 µM compound, replicate 1
[3] = LOPAC1280 primary screen with protease, 5 µM compound, replicate 2
[4] = sheet LOPAC_screen_w_protease, LOPAC1280 primary screen at 5 µM, with protease, replicate 1, read-out: Replicate_1
[5] = sheet LOPAC_screen_w_protease, LOPAC1280 primary screen at 5 µM, with protease, replicate 2, read-out: Replicate_2
[6] = sheet LOPAC_screen_w_protease, LOPAC1280 primary screen at 5 µM, with protease, mean of two replicates
[7] = sheet LOPAC_screen_w_protease, LOPAC1280 primary screen at 5 µM, with protease, replicate 1
[8] = sheet LOPAC_screen_w_protease, LOPAC1280 primary screen at 5 µM, with protease, replicate 2
[9] = LOPAC1280 primary screen with protease, 5 µM compound, replicate 1, read-out: Replicate_1 (LOPAC_screen_w_protease)
[10] = LOPAC1280 primary screen with protease, 5 µM compound, replicate 2, read-out: Replicate_2 (LOPAC_screen_w_protease)
[11] = sheet LOPAC_screen_w_protease, primary screen with protease, 5 µM, mean of two replicates
[12] = sheet LOPAC_screen_w_protease, primary screen with protease, 5 µM, replicate 1
[13] = sheet LOPAC_screen_w_protease, primary screen with protease, 5 µM, replicate 2
[14] = sheet LOPAC_screen_w_protease, LOPAC1280 primary screen with protease, 5 µM compound, mean of the two replicates, read-out: mean
[15] = sheet LOPAC_screen_w_protease, LOPAC1280 primary screen with protease, 5 µM compound, replicate 1, read-out: Replicate_1
[16] = sheet LOPAC_screen_w_protease, LOPAC1280 primary screen with protease, 5 µM compound, replicate 2, read-out: Replicate_2
[17] = sheet LOPAC_screen_w_protease, LOPAC1280 at 5 µM, mean of two replicates, read-out: mean
[18] = sheet LOPAC_screen_w_protease, LOPAC1280 at 5 µM, replicate 1, read-out: Replicate_1
[19] = sheet LOPAC_screen_w_protease, LOPAC1280 at 5 µM, replicate 2, read-out: Replicate_2
[20] = sheet LOPAC_screen_w_protease, LOPAC1280 primary screen at 5 µM, with protease, mean of the two replicates
[21] = sheet LOPAC_screen_w_protease, primary screen with protease, mean of two replicates, read-out: mean
[22] = sheet LOPAC_screen_w_protease, primary screen with protease, replicate 1, read-out: Replicate_1
[23] = sheet LOPAC_screen_w_protease, primary screen with protease, replicate 2, read-out: Replicate_2
[24] = sheet LOPAC_screen_w_protease, primary screen with protease, 5 µM, mean of two replicates, read-out: mean
[25] = sheet LOPAC_screen_w_protease, primary screen with protease, 5 µM, replicate 1, read-out: Replicate_1
[26] = sheet LOPAC_screen_w_protease, primary screen with protease, 5 µM, replicate 2, read-out: Replicate_2

Structure (SMILES): CP(=O)(O)CCCN.Cl [SKF 97541 hydrochloride]
- mean (LOPAC_screen_w_protease) [1]: 1.5203
- Replicate_1 (LOPAC_screen_w_protease) [2]: 0.8621
- Replicate_2 (LOPAC_screen_w_protease) [3]: 2.1785

Structure (SMILES): CCCC(C(=O)OCCN(CC)CC)(c1ccccc1)c1ccccc1.Cl [SKF-525A hydrochloride]
- mean (sheet LOPAC_screen_w_protease, primary screen of LOPAC1280 at 5 µM with protease, mean of the two replicates): 3.89
- Replicate_1 (sheet LOPAC_screen_w_protease, primary screen of LOPAC1280 at 5 µM with protease, replicate 1): 3.162
- Replicate_2 (sheet LOPAC_screen_w_protease, primary screen of LOPAC1280 at 5 µM with protease, replicate 2): 4.618

Structure (SMILES): C=CCN1C[C@H](C)N([C@H](c2ccc(C(=O)N(CC)CC)cc2)c2cccc(OC)c2)C[C@H]1C [SNC80]
- Replicate_1: -0.408
- Replicate_2: 1.648
- mean: 0.6198

Structure (SMILES): Oc1c2ccccc2c2c3c(cccc13)N=N2 [SP600125]
- inhibition at 5 µM (sheet LOPAC_screen_w_protease, LOPAC1280 primary screen at 5 µM, with protease, mean of two replicates, read-out: mean): -1.9%
- inhibition at 5 µM [4]: 0.641%
- inhibition at 5 µM [5]: -4.45%

Structure (SMILES): Nc1ncnc2c1ncn2C1CCCO1 (stereo not drawn) [SQ 22536]
- mean [6]: -1.0181
- Replicate_1 [7]: 0.976
- Replicate_2 [8]: -3.012

Structure (SMILES): O=C(O)c1ccccc1Nc1cccc(OCc2ccc3ccccc3n2)c1 [SR 2640]
- inhibition at 5 µM [9]: 1.95%
- inhibition at 5 µM [10]: 1.04%
- mean (LOPAC_screen_w_protease) [1]: 1.4964

Structure (SMILES): Cl.NC1CCN(c2cccc(Cl)n2)CC1 [SR 57227A]
- mean (sheet LOPAC_screen_w_protease, LOPAC1280 at 5 µM, mean of two replicates): 1.074
- Replicate_1 (sheet LOPAC_screen_w_protease, LOPAC1280 at 5 µM, replicate 1): 1.181
- Replicate_2 (sheet LOPAC_screen_w_protease, LOPAC1280 at 5 µM, replicate 2): 0.9673

Structure (SMILES): CCc1ccccc1OC[C@@H](O)CN[C@H]1CCCc2ccccc21.O=C(O)C(=O)O [SR 59230A oxalate]
- mean [11]: -0.0002221
- Replicate_1 [12]: 1.088
- Replicate_2 [13]: -1.089

Structure (SMILES): Br.COc1ccc(-c2ccc(=N)n(CCCC(=O)O)n2)cc1 [SR-95531]
- Replicate_1 (LOPAC_screen_w_protease): 2.0939
- Replicate_2 (LOPAC_screen_w_protease): 0.7216
- mean (LOPAC_screen_w_protease): 1.408

Structure (SMILES): CN(C)c1ccc(/C=C2\C(=O)Nc3ccccc32)cc1 [SU 4312]
- mean [11]: 0.09243
- Replicate_1 [12]: 0.4934
- Replicate_2 [13]: -0.3085

Structure (SMILES): CN(C)S(=O)(=O)c1ccc2c(c1)/C(=C/c1cc3c([nH]1)CCCC3)C(=O)N2 [SU 6656]
- inhibition at 5 µM [14]: 4.85%
- inhibition at 5 µM [15]: 3.58%
- inhibition at 5 µM [16]: 6.11%

Structure (SMILES): CC(C)(C)NCC(O)c1ccc(O)c(CO)c1 (stereo not drawn) [Salbutamol]
- inhibition at 5 µM [17]: 1.09%
- inhibition at 5 µM [18]: 1.09%
- inhibition at 5 µM [19]: 1.1%

Structure (SMILES): CCCCCCCCCC[Si](C)(C)CCC(=O)NC(Cc1ccc(C)cc1)c1ccccc1 (stereo not drawn) [Sandoz 58-035]
- mean [20]: 0.7639
- Replicate_1 [7]: 1.25
- Replicate_2 [8]: 0.2774

Structure (SMILES): C[n+]1cc2c3c(ccc2c2ccc4cc5c(cc4c21)OCO5)OCO3 [Sanguinarine chloride]
- inhibition at 5 µM (read-out: Replicate_1 (LOPAC screen with protease)): 46.2%
- inhibition at 5 µM (read-out: Replicate_2 (LOPAC screen with protease)): 43.3%
- inhibition at 5 µM (read-out: mean (LOPAC screen with protease)): 44.8%

Structure (SMILES): C[Se]C[C@H](N)C(=O)O.Cl [Se-(methyl)selenocysteine hydrochloride]
- mean (LOPAC screen with protease) (sheet LOPAC_screen_w_protease, primary screen at 5 µM, mean of two replicates): 12.3582
- Replicate_1 (LOPAC screen with protease) (sheet LOPAC_screen_w_protease, primary screen at 5 µM, replicate 1): 13.6627
- Replicate_2 (LOPAC screen with protease) (sheet LOPAC_screen_w_protease, primary screen at 5 µM, replicate 2): 11.0537

Structure (SMILES): CC(C)[C@@H]1NC(=O)[C@H](CCCCN)NC(=O)[C@@H](Cc2c[nH]c3ccccc23)NC(=O)[C@H](Cc2ccc(O)cc2)NC(=O)[C@H](C)N(C)C(=O)[C@H](Cc2ccccc2)NC1=O [Seglitide]
- inhibition at 5 µM [9]: 3.58%
- inhibition at 5 µM [10]: -0.291%
- mean (LOPAC_screen_w_protease) [1]: 1.643

Structure (SMILES): Cl.NNC(N)=O [Semicarbazide hydrochloride]
- mean (LOPAC_screen_w_protease) [1]: 1.574
- Replicate_1 (LOPAC_screen_w_protease) [2]: 1.447
- Replicate_2 (LOPAC_screen_w_protease) [3]: 1.701

Structure (SMILES): C[C@H](O)C(=O)C1=Nc2c(nc(N)[nH]c2=O)NC1 [Sepiapterin]
- inhibition at 5 µM [21]: 2.57%
- inhibition at 5 µM [22]: 2.59%
- inhibition at 5 µM [23]: 2.55%

Structure (SMILES): NCCc1c[nH]c2ccc(O)cc12 [Serotonin hydrochloride]
- inhibition at 5 µM [9]: 2.37%
- inhibition at 5 µM [10]: 1.09%
- mean (LOPAC_screen_w_protease) [1]: 1.729

Structure (SMILES): CC(C)COC(=O)OCN1C(=O)CN(CCN2CC(=O)N(COC(=O)OCC(C)C)C(=O)C2)CC1=O [Sobuzoxane]
- inhibition at 5 µM [21]: 2.23%
- inhibition at 5 µM [22]: 2.79%
- inhibition at 5 µM [23]: 1.66%

Structure (SMILES): NC(=O)C(=O)O [Sodium Oxamate]
- inhibition at 5 µM [14]: 4.58%
- inhibition at 5 µM [15]: 4.67%
- inhibition at 5 µM [16]: 4.48%

Structure (SMILES): NCCCCNCCCN [Spermidine trihydrochloride]
- inhibition at 5 µM [14]: 4.14%
- inhibition at 5 µM [15]: 3.25%
- inhibition at 5 µM [16]: 5.03%

Structure (SMILES): NCCCNCCCCNCCCN [Spermine tetrahydrochloride]
- inhibition at 5 µM (read-out: Replicate_1): 3.94%
- inhibition at 5 µM (read-out: Replicate_2): 4.24%
- inhibition at 5 µM (read-out: mean): 4.09%

Structure (SMILES): CCCCCCCCCCCCC/C=C/[C@@H](O)[C@@H](N)CO [Sphingosine]
- inhibition at 5 µM [24]: -0.887%
- inhibition at 5 µM [25]: -1.81%
- inhibition at 5 µM [26]: 0.0317%

Structure (SMILES): O=C(CCCN1CCC2(CC1)C(=O)NCN2c1ccccc1)c1ccc(F)cc1 [Spiperone hydrochloride]
- inhibition at 5 µM [9]: 2.31%
- inhibition at 5 µM [10]: 1.15%
- mean (LOPAC_screen_w_protease) [1]: 1.727

Structure (SMILES): O=C1NCN(c2ccccc2)C12CCN(CC1COc3ccccc3O1)CC2 (stereo not drawn) [Spiroxatrine]
- inhibition at 5 µM (sheet LOPAC_screen_w_protease, LOPAC1280 primary screen at 5 µM, with protease, mean of the two replicates, read-out: mean): 0.522%
- inhibition at 5 µM [4]: 1.86%
- inhibition at 5 µM [5]: -0.819%

Structure (SMILES): C[N+](C)(C)CCOC(=O)CCC(=O)OCC[N+](C)(C)C [Succinylcholine chloride]
- inhibition at 5 µM [17]: 1.08%
- inhibition at 5 µM [18]: 1.05%
- inhibition at 5 µM [19]: 1.11%

Structure (SMILES): Nc1ccc(S(=O)(=O)Nc2ccnn2-c2ccccc2)cc1 [Sulfaphenazole]
- inhibition at 5 µM [24]: 0.0259%
- inhibition at 5 µM [25]: 0.159%
- inhibition at 5 µM [26]: -0.107%

Structure (SMILES): CC1=C(CC(=O)O)c2cc(F)ccc2/C1=C\c1ccc(S(C)(=O)=O)cc1 [Sulindac sulfone]
- mean [6]: -1.258
- Replicate_1 [7]: 0.6759
- Replicate_2 [8]: -3.192

Structure (SMILES): Cc1ccc(C(=O)Nc2ccc(S(=O)(=O)O)c3cc(S(=O)(=O)O)cc(S(=O)(=O)O)c23)cc1NC(=O)c1cccc(NC(=O)Nc2cccc(C(=O)Nc3cc(C(=O)Nc4ccc(S(=O)(=O)O)c5cc(S(=O)(=O)O)cc(S(=O)(=O)O)c45)ccc3C)c2)c1 [Suramin hexasodium]
- inhibition at 5 µM [17]: 1.22%
- inhibition at 5 µM [18]: 2.66%
- inhibition at 5 µM [19]: -0.222%

Structure (SMILES): COC(=O)c1c(-c2cc(OC)c(OC)c(OC)c2)c2ccnc(OCc3ncccn3)c2c(=O)n1Cc1ccnc(C)c1 [T-0156]
- mean [20]: 0.7124
- Replicate_1 [7]: 1.2
- Replicate_2 [8]: 0.2248

Structure (SMILES): COC(=O)c1c(-c2cc(OC)c(OC)c(OC)c2)c2ccc(OCc3ccccn3)cc2c(=O)n1-c1ccc(N)cc1.O=S(=O)(O)O [T-1032]
- mean [20]: 0.5404
- Replicate_1 [7]: 1.02
- Replicate_2 [8]: 0.06128

Structure (SMILES): Clc1cnc(Oc2ccc(Oc3ncc(Cl)cc3Cl)cc2)c(Cl)c1 [TCPOBOP]
- mean (sheet LOPAC_screen_w_protease, primary screen with protease, mean of two replicates): 2.32
- Replicate_1 (sheet LOPAC_screen_w_protease, primary screen with protease, replicate 1): 5.456
- Replicate_2 (sheet LOPAC_screen_w_protease, primary screen with protease, replicate 2): -0.8151

Structure (SMILES): CCSC(=N)Nc1ccc(C(F)(F)F)cc1.Cl [TFPI hydrochloride]
- mean (LOPAC_screen_w_protease) [1]: 1.706
- Replicate_1 (LOPAC_screen_w_protease) [2]: 2.498
- Replicate_2 (LOPAC_screen_w_protease) [3]: 0.9137

Structure (SMILES): Cl.O=c1[nH]oc2c1CCNC2 [THIP hydrochloride]
- mean [11]: -0.005768
- Replicate_1 [12]: -0.552
- Replicate_2 [13]: 0.5405

Structure (SMILES): CCN(CC)CCCCCCCCOC(=O)c1cc(OC)c(OC)c(OC)c1.Cl [TMB-8 hydrochloride]
- mean [11]: -0.545
- Replicate_1 [12]: 0.4949
- Replicate_2 [13]: -1.585

Structure (SMILES): CP(=O)(O)C1=CCNCC1 [TPMPA]
- mean [11]: 0.264
- Replicate_1 [12]: -0.09904
- Replicate_2 [13]: 0.6269
